Reference: US20090209541A1, “APREPITANT COMPOSITIONS” (Dr. Reddy's Laboratories Ltd., priority 2006, published 2009)
Values after ≈ are worked out from the molar mass of the structure shown. One block for each compound: values may come before it.

Columns and labels:
[1] = cited from earlier work
[2] = cited from earlier work; remark: listed apart in the source
[3] = U.S. Pat. Nos. 6,096,742 and 6,583,142; cited from earlier work
[4] = Solubility of powder compositions of aprepitant at 25° C. in water (HPLC method); format: physicochemical; settings: thermodynamic from solid
Protocol: Solubility of Powder Compositions of Aprepitant at 25° C. in Water
• A. Aprepitant: Neat aprepitant was passed through a BSS # 80 mesh sieve, and its solubility in water was determined using a HPLC method. • B. Aprepitant: PVP K30 (1:1 w/w) solid dispersion: 2 g aprepitant and 2 g PVP K 30 were dissolved in a mixture of 200 ml dichloromethane and 20 ml methanol. This solution was dried in a rotary flash evaporator at 50° C. The dried solid dispersion was passed through a BSS # 80 mesh sieve. • C. Premix of A and B (1:6 w/w): Neat aprepitant and solid dispersion from B was mixed in the weight proportions of 1:6. This mixture was passed through a BSS # 80 mesh sieve. • D. Premix of A and B (1:2 w/w): Neat aprepitant and solid dispersion from B was mixed in the weight proportions of 1:2. This mixture was passed through a BSS # 80 mesh sieve. • E. Premix of A and B (3:2 w/w): Neat aprepitant and solid dispersion from B was mixed in the weight proportions of 3:2. This mixture was passed through a BSS # 80 mesh sieve. • F. Aprepitant: Polysorbate 80 (1:1 w/w): 1 g aprepitant and 1 g polysorbate 80 were mixed together by trituration. […]
Injected blank once, standard solution, all sample preparations in different pH solutions each twice into the chromatographic system. Aprepitant solubility in mg/ml was calculated using following formula: […]

Structure (SMILES): C[C@@H](O[C@H]1OCCN(Cc2n[nH]c(=O)[nH]2)[C@H]1c1ccc(F)cc1)c1cc(C(F)(F)F)cc(C(F)(F)F)c1 [Aprepitant, 5-[[(2R,3S)-2-[(1R)-1-[3,5-bis(trifluoromethyl)phenyl]ethoxy]-3-(4-fluorophenyl)-4-morpholinyl]methyl]-1,2-dihydro-3H-1,2,4-triazol-3-one]
solubility in acetonitrile (descriptive) ([1]; acetonitrile): slightly soluble
solubility in ethanol (descriptive) ([1]; ethanol): sparingly soluble
solubility in isopropyl acetate (descriptive) ([1]; isopropyl acetate): sparingly soluble
solubility in water (descriptive) ([1]; water): practically insoluble
permeability characteristics [2]: poor permeability

Structure (SMILES): C[C@@H](O[C@H]1OCCN(Cc2n[nH]c(=O)[nH]2)[C@H]1c1ccc(F)cc1)c1cc(C(F)(F)F)cc(C(F)(F)F)c1 [Form I, aprepitant]
solubility relative to Form II [3]: lower solubility as compared to Form II
thermodynamic stability relative to Form II [3]: thermodynamically more stable than Form II

solubility [4]: 0.5 µg/mL (≈ 0.936 µM)
Structure (SMILES): C[C@@H](O[C@H]1OCCN(Cc2n[nH]c(=O)[nH]2)[C@H]1c1ccc(F)cc1)c1cc(C(F)(F)F)cc(C(F)(F)F)c1 [A, Aprepitant]
